Results from ChEMBL document CHEMBL3526048, “In vitro metabolism of rivoglitazone, a novel peroxisome proliferator-activated receptor γ agonist, in rat, monkey, and human liver microsomes and freshly isolated hepatocytes” (Drug Metab Dispos, 2011).

Legend:
[1] = target: T1, UDP-glucuronosyltransferase 1A3 (Homo sapiens, UniProt P35503); experiment: Activity of human UGT1A3 expressed in microsomes isolated from baculovirus infected insect cell assessed as enzyme-mediated compound formation treated with [14C]-rivoglitazone at 20 uM after 4 hrs by radio-HPLC/LC-MS/MS analysis in presence of UDPGA, UDPGA/SAM
T1 sequence (P35503 whole entry): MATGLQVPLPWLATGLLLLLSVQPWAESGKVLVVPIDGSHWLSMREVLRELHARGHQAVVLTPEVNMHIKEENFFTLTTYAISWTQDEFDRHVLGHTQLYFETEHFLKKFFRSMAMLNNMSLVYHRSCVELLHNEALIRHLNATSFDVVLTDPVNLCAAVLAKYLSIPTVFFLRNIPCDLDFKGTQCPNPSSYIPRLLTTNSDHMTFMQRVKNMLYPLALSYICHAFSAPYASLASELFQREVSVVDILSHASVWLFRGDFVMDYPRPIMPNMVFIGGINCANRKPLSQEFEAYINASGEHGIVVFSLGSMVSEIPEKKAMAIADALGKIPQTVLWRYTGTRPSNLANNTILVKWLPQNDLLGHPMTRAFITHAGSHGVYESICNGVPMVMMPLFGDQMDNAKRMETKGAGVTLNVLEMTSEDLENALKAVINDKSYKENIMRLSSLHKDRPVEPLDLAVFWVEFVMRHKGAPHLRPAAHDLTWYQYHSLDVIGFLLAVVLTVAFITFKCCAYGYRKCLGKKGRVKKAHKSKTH

[2] = Drug metabolism in rat hepatocytes assessed as formation of 3-(4-((6-methoxy-1-methyl-1H-benzo[d]imidazol-2-yl)methoxy)phenyl)-2-(methylsulfinyl)propanamide at 30 uM after 3 hrs by radio-HPLC/LC-MS/MS analysis in presence of NADPH-generating system/SAM; format: ADME, cell-based, Hepatocyte
[3] = Drug metabolism in human hepatocytes assessed as formation of 2-((4-((2,4-dioxothiazolidin-5-yl)methyl)phenoxy)methyl)-1-methyl-1H-benzo[d]imidazol-6-yl hydrogen sulfate at 30 uM after 3 hrs by radio-HPLC/LC-MS/MS analysis; format: ADME, cell-based, Hepatocyte
[4] = Drug metabolism in cynomolgus monkey liver microsomes assessed as formation of 3-(4-((6-methoxy-1-methyl-1H-benzo[d]imidazol-2-yl)methoxy)phenyl)-2-(methylthio)propanamide at 20 uM after 2 hrs by radio-HPLC/LC-MS/MS analysis in presence of NADPH-generating system/SAM; format: ADME, Macaca fascicularis
[5] = Drug metabolism in po dosed monkey liver microsomes assessed as formation of 5-(4-((6-methoxy-1H-benzo[d]imidazol-2-yl)methoxy)benzyl)thiazolidine-2,4-dione; format: ADME, Macaca mulatta; conditions: rhesus monkey
[6] = Drug metabolism in rat hepatocytes assessed as formation of 2-amino-3-((1-carboxy-2-(4-((6-methoxy-1-methyl-1H-benzo[d]imidazol-2-yl)methoxy)phenyl)ethyl)disulfanyl)propanoic acid at 30 uM after 3 hrs by radio-HPLC/LC-MS/MS analysis; format: ADME, cell-based, Hepatocyte
[7] = Drug metabolism in rat hepatocytes assessed as formation of 5-hydroxy-5-(4-((6-methoxy-1-methyl-1H-benzo[d]imidazol-2-yl)methoxy)benzyl)thiazolidine-2,4-dione at 30 uM after 3 hrs by radio-HPLC/LC-MS/MS analysis in presence of NADPH-generating system and NADPH-generating system/SAM; format: ADME, cell-based, Hepatocyte
[8] = Drug metabolism in human hepatocytes assessed as formation of 3-(4-((6-methoxy-1-methyl-1H-benzo[d]imidazol-2-yl)methoxy)phenyl)-2-(methylthio)propanoic acid at 30 uM after 3 hrs by radio-HPLC/LC-MS/MS analysis in presence of NADPH-generating system/SAM and UDPGA/SAM; format: ADME, cell-based, Hepatocyte
[9] = Drug metabolism in rat hepatocytes assessed as formation of (2S,3S,4S,5R,6R)-3,4,5-trihydroxy-6-(5-(4-((6-methoxy-1-methyl-1H-benzo[d]imidazol-2-yl)methoxy)benzyl)-2,4-dioxothiazolidin-3-yl)tetrahydro-2H-pyran-2-carboxylic acid at 30 uM after 3 hrs by radio-HPLC/LC-MS/MS analysis in presence of UDPGA and UDPGA/SAM; format: ADME, cell-based, Hepatocyte
Cytochrome P450 3A4 [10] = target: T2, Cytochrome P450 3A4 (Homo sapiens, UniProt P08684); experiment: Activity of human CYP3A4 expressed in microsomes isolated from baculovirus infected insect cell assessed as enzyme-mediated 2-mercapto-3-(4-((6-methoxy-1-methyl-1H-benzo[d]imidazol-2-yl)methoxy)phenyl)propanamide formation at 20 uM after 2 hrs by radio-HPLC/LC-MS/MS analysis in presence of NADPH-generating system and NADPH-generating system/SAM; format: ADME
T2 sequence (P08684 whole entry): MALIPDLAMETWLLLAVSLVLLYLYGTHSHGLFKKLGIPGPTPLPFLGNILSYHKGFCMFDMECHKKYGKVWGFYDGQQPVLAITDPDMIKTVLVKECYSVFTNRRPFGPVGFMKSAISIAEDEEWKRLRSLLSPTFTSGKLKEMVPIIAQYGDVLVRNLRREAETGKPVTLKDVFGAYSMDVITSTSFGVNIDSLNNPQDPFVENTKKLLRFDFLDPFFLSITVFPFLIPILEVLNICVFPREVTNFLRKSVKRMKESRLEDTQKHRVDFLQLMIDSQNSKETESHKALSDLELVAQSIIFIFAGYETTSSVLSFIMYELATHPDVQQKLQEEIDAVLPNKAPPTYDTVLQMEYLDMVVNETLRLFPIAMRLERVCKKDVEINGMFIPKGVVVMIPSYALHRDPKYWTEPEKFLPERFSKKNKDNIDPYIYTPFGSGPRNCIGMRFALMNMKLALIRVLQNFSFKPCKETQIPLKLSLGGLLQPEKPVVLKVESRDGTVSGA

Cytochrome P450 3A4 [11] = target: T2, Cytochrome P450 3A4; experiment: Activity of human CYP3A4 expressed in microsomes isolated from baculovirus infected insect cell assessed as enzyme-mediated 5-hydroxy-5-(4-((6-methoxy-1-methyl-1H-benzo[d]imidazol-2-yl)methoxy)benzyl)thiazolidine-2,4-dione formation at 20 uM after 2 hrs by radio-HPLC/LC-MS/MS analysis in presence of NADPH-generating system and NADPH-generating system/SAM; format: ADME
Cytochrome P450 2D6 = Cytochrome P450 2D6 (Homo sapiens, UniProt P10635); experiment: Activity of human CYP2D6 expressed in microsomes isolated from baculovirus infected insect cell assessed as enzyme-mediated 3-(4-((6-methoxy-1-methyl-1H-benzo[d]imidazol-2-yl)methoxy)phenyl)-2-(methylsulfinyl)propanamide formation at 20 uM after 2 hrs by radio-HPLC/LC-MS/MS analysis in presence of NADPH-generating system/SAM; format: ADME
Cytochrome P450 2D6, sequence (P10635 whole entry): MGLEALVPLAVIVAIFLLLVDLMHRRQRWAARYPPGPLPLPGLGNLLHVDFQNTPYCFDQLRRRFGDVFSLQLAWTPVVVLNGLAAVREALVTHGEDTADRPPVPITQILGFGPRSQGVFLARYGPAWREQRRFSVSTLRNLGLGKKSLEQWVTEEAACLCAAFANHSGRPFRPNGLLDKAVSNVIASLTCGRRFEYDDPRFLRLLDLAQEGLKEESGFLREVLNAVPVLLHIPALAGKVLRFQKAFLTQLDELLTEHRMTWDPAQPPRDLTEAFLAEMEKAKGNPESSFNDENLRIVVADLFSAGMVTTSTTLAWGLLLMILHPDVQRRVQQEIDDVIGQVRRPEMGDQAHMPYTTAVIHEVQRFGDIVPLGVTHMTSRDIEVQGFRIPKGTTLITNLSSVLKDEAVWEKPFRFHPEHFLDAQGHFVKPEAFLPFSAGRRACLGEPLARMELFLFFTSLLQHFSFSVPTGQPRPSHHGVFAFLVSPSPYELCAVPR

Cytochrome P450 2C9 = Cytochrome P450 2C9 (Homo sapiens, UniProt P11712); experiment: Activity of human CYP2C9 expressed in microsomes isolated from baculovirus infected insect cell assessed as enzyme-mediated 5-(4-((6-hydroxy-1-methyl-1H-benzo[d]imidazol-2-yl)methoxy)benzyl)thiazolidine-2,4-dione formation at 20 uM after 2 hrs by radio-HPLC/LC-MS/MS analysis in presence of NADPH-generating system and NADPH-generating system/SAM; format: ADME
Cytochrome P450 2C9, sequence (P11712 whole entry): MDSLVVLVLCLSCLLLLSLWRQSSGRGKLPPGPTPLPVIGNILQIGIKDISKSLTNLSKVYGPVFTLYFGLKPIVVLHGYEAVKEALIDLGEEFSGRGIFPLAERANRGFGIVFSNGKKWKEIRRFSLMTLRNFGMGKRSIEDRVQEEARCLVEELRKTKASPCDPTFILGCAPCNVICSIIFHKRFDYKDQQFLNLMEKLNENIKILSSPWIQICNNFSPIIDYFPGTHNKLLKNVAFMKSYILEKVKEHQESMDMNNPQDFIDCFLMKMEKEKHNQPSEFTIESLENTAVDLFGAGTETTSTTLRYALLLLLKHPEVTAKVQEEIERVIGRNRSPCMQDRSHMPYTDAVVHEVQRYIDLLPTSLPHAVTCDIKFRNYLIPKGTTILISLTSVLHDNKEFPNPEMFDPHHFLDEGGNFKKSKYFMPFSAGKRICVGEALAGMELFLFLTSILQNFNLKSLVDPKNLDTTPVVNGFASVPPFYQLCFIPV

Liver microsome = experiment: Drug metabolism in Sprague-Dawley rat liver microsomes assessed as formation of 3-(4-((6-methoxy-1-methyl-1H-benzo[d]imidazol-2-yl)methoxy)phenyl)-2-(methylthio)propanoic acid at 20 uM after 2 to 4 hrs by radio-HPLC/LC-MS/MS analysis in presence of NADPH-generating system/SAM and UDPGA/SAM; format: ADME
[12] = Drug metabolism in monkey hepatocytes assessed as formation of 2-((4-((2,4-dioxothiazolidin-5-yl)methyl)phenoxy)methyl)-1-methyl-1H-benzo[d]imidazol-6-yl hydrogen sulfate at 30 uM after 3 hrs by radio-HPLC/LC-MS/MS analysis; conditions: cynomolgus monkey

| Drug metabolism [1] | Drug metabolism [2] | Drug metabolism [3] | Drug metabolism [4] | Drug metabolism [5] | Drug metabolism [6] | Drug metabolism [7] | Drug metabolism [8] | Drug metabolism [9] | Drug metabolism (Cytochrome P450 3A4 [10]) | Drug metabolism (Cytochrome P450 3A4 [11]) | Drug metabolism (Cytochrome P450 2D6) | Drug metabolism (Cytochrome P450 2C9) | Drug metabolism (Liver microsome) | Drug metabolism [12] | SMILES |
| --- | --- | --- | --- | --- | --- | --- | --- | --- | --- | --- | --- | --- | --- | --- | --- |
| metabolite_detected | – | – | – | – | – | – | – | – | – | – | – | – | – | – | COc1ccc2nc(COc3ccc(CC(S)C(=O)O)cc3)n(C)c2c1 (stereo not given) |
| – | metabolite_detected | metabolite_detected | metabolite_detected | metabolite_detected | metabolite_not_detected | metabolite_detected | metabolite_not_detected | metabolite_detected | metabolite_detected | metabolite_detected | metabolite_not_detected | metabolite_detected | metabolite_detected | metabolite_detected | COc1ccc2nc(COc3ccc(C[14CH]4SC(=O)NC4=O)cc3)n(C)c2c1.Cl (racemic) |
